Values of other authors in PubChem BioAssay AID1259409 (Chemical Carcinogenesis Research Information System (CCRIS), 2018).

Tested on: rodent chemically induced tumor inhibition, incidence and multiplicity
Assay: CCRIS tumor inhibitor studies
Conditions: Route [Inhibitor]: ORAL, Promoter: NONE USED

CC1=C(/C=C/C(C)=C/C=C/C(C)=C\C(=O)O)C(C)(C)CCC1
tumour outcome (control, treated, inhibition, significance) (Carcinogen: N-(4-(5-NITRO-2-FURYL)-2-THIAZOLYL)FORMAMIDE, 24554-26-5, Dose [Inhibitor]: 120 MG/KG DIET DAILY STARTING 1 WK AFTER COMPLETION OF CARCINOGEN TREATMENT AND CONTINUING UNTIL END OF STUDY (STUDY DUR, Species: RAT, Strain/Sex: F344/FEMALE, Target Tissue: Type of Lesion: URINARY BLADDER: PAPILLOMA, Dose [Carcinogen]: 2 G/KG DIET DAILY FOR 10 WK): 10/100 (10%), 12/100 (12%), -20%, p 0.655
tumour outcome (control, treated, inhibition, significance) (Carcinogen: N-(4-(5-NITRO-2-FURYL)-2-THIAZOLYL)FORMAMIDE, 24554-26-5, Dose [Inhibitor]: 240 MG/KG DIET DAILY STARTING 1 WK AFTER COMPLETION OF CARCINOGEN TREATMENT AND CONTINUING UNTIL END OF STUDY (STUDY DUR, Species: RAT, Strain/Sex: F344/FEMALE, Target Tissue: Type of Lesion: URINARY BLADDER: CARCINOMA, Dose [Carcinogen]: 2 G/KG DIET DAILY FOR 10 WK): 36/100 (36%), 47/100 (47%), -31%, p 0.024
tumour outcome (control, treated, inhibition, significance) (Carcinogen: N-(4-(5-NITRO-2-FURYL)-2-THIAZOLYL)FORMAMIDE, 24554-26-5, Dose [Inhibitor]: 240 MG/KG DIET DAILY STARTING 1 WK AFTER COMPLETION OF CARCINOGEN TREATMENT AND CONTINUING UNTIL END OF STUDY (STUDY DUR, Species: RAT, Strain/Sex: F344/FEMALE, Target Tissue: Type of Lesion: URINARY BLADDER: PAPILLOMA, Dose [Carcinogen]: 2 G/KG DIET DAILY FOR 10 WK): 10/100 (10%), 7/100 (7%), 30%, p 0.446
tumour outcome (control, treated, inhibition, significance) (Carcinogen: N-BUTYL-N-(4-HYDROXYBUTYL)NITROSAMINE, 3817-11-6, Dose [Inhibitor]: 0.8 MMOL/KG DIET DAILY FOR 19 WK STARTING 7 D AFTER FINAL CARCINOGEN DOSE (STUDY DURATION: 6 MO), Species: RAT, Strain/Sex: F344/FEMALE, Target Tissue: Type of Lesion: URINARY BLADDER: TRANSITIONAL CELL CARCINOMA, Dose [Carcinogen]: 150 MG 2/WK FOR 6 WK): 28/80 (35%), 7/40 (18%), 49%, p<0.05
tumour outcome (control, treated, inhibition, significance) (Carcinogen: N-BUTYL-N-(4-HYDROXYBUTYL)NITROSAMINE, 3817-11-6, Dose [Inhibitor]: 0.8 MMOL/KG DIET DAILY FOR 19 WK STARTING 7 D AFTER FINAL CARCINOGEN DOSE (STUDY DURATION: 6 MO), Species: RAT, Strain/Sex: F344/MALE, Target Tissue: Type of Lesion: URINARY BLADDER: TRANSITIONAL CELL CARCINOMA, Dose [Carcinogen]: 200 MG 2/WK FOR 8 WK): 55/60 (92%), 24/30 (80%), 13%, not significant
tumour outcome (control, treated, inhibition, significance) (Carcinogen: N-BUTYL-N-(4-HYDROXYBUTYL)NITROSAMINE, 3817-11-6, Dose [Inhibitor]: 150 MG/G DIET DAILY STARTING 7 D AFTER THE LAST CARCINOGEN DOSE AND CONTINUING THROUGH THE END OF THE STUDY (STUDY DURAT, Species: MOUSE, Strain/Sex: B6D2F1/FEMALE, MALE, Target Tissue: Type of Lesion: URINARY BLADDER: TRANSITIONAL CELL CARCINOMA, Dose [Carcinogen]: 10 MG 2/WK FOR 9 WK): 23/54 (43%), 19/55 (35%), 19%, not significant
tumour outcome (control, treated, inhibition, significance) (Carcinogen: N-BUTYL-N-(4-HYDROXYBUTYL)NITROSAMINE, 3817-11-6, Dose [Inhibitor]: 150 MG/KG DIET DAILY STARTING 7 D AFTER THE LAST CARCINOGEN DOSE AND CONTINUING THROUGH THE END OF THE STUDY (STUDY DURA, Species: MOUSE, Strain/Sex: B6D2F1/FEMALE, MALE, Target Tissue: Type of Lesion: URINARY BLADDER: TRANSITIONAL CELL CARCINOMA, Dose [Carcinogen]: 5 MG 2/WK FOR 9 WK): 29/71 (41%), 19/69 (28%), 32%, not significant
tumour outcome (control, treated, inhibition, significance) (Carcinogen: N-BUTYL-N-(4-HYDROXYBUTYL)NITROSAMINE, 3817-11-6, Dose [Inhibitor]: 200 MG/G DIET DAILY STARTING 7 D AFTER THE LAST CARCINOGEN DOSE AND CONTINUING THROUGH THE END OF THE STUDY (STUDY DURAT, Species: MOUSE, Strain/Sex: B6D2F1/FEMALE, MALE, Target Tissue: Type of Lesion: URINARY BLADDER: TRANSITIONAL CELL CARCINOMA, Dose [Carcinogen]: 5 MG 2/WK FOR 9 WK): 29/71 (41%), 17/71 (24%), 41%, p<0.05
tumour outcome (control, treated, inhibition, significance) (Carcinogen: N-BUTYL-N-(4-HYDROXYBUTYL)NITROSAMINE, 3817-11-6, Dose [Inhibitor]: 200 MG/G DIET DAILY STARTING 7 D AFTER THE LAST CARCINOGEN DOSE AND CONTINUING THROUGH THE END OF THE STUDY (STUDY DURAT, Species: MOUSE, Strain/Sex: B6D2F1/FEMALE, MALE, Target Tissue: Type of Lesion: URINARY BLADDER: TRANSITIONAL CELL CARCINOMA, Dose [Carcinogen]: 10 MG 2/WK FOR 9 WK): 23/54 (43%), 12/54 (22%), 49%, p<0.05
tumour outcome (control, treated, inhibition, significance) (Carcinogen: N-BUTYL-N-(4-HYDROXYBUTYL)NITROSAMINE, 3817-11-6, Dose [Inhibitor]: 200 MG/KG DIET DAILY STARTING 7 D AFTER LAST CARCINOGEN DOSE AND CONTINUING THROUGH THE END OF STUDY (STUDY DURATION: 6, Species: MOUSE, Strain/Sex: C57BL/MALE, Target Tissue: Type of Lesion: URINARY BLADDER: NEOPLASM, Dose [Carcinogen]: 7.5 MG 2/WK FOR 6 WK): 9/24 (38%), 1/19 (5%), 87%, p<0.05
